Results published in ChEMBL document CHEMBL1201862, “PubChem BioAssay data set” (2004).
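Briefly, cells in 96-well plates were exposed to five compound concentrations for 48 h, and endpoints were estimated by linear interpolation. GI50 is the concentration that inhibits growth by half.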 Calls of active or inactive are those of the source. Cut-off read from the data, not from the text of the source: active = GI50 up to about 1.1 µM and inactive = higher.

Columns and labels:
Assay in all cases: inhibition of tumour cell growth, NCI panel, 48 h
SNB-78 = test system: SNB-78
KM-20L2 = test system: KM-20L2
XF498 = test system: XF498
DMS-273 = test system: DMS-273
DLD-1 = test system: DLD-1
HOP-18 = test system: HOP-18
DMS-114 = test system: DMS-114
M19-MEL = test system: M19-MEL
RXF 631 = test system: RXF 631

## COc1cc(O)c2c(c1)O[C@@H]1OCC[C@H]21
SNB-78
  GI50: > 100 µM (inactive)
KM-20L2
  GI50: > 100 µM (inactive)
XF498
  GI50: > 100 µM (inactive)
DMS-273
  GI50: > 100 µM (inactive)
DLD-1
  GI50: > 100 µM (inactive)
HOP-18
  GI50: > 100 µM (inactive)
DMS-114
  GI50: > 100 µM (inactive)

## COC(=O)C1CSC(c2csc(CCN)n2)=N1 (stereo not given)
SNB-78
  GI50: > 100 µM (inactive)
KM-20L2
  GI50: > 100 µM (inactive)
XF498
  GI50: > 100 µM (inactive)
DMS-273
  GI50: > 100 µM (inactive)
M19-MEL
  GI50: > 100 µM (inactive)
HOP-18
  GI50: > 100 µM (inactive)
DMS-114
  GI50: > 100 µM (inactive)

## CCOC(=O)NC(=O)c1cn(C2CCCCC2)c(=O)[nH]c1=O
SNB-78
  GI50: 65.9 µM (inactive)
KM-20L2
  GI50: 36.3 µM (inactive)
XF498
  GI50: > 100 µM (inactive)
DMS-273
  GI50: 73.3 µM (inactive)
M19-MEL
  GI50: 76.4 µM (inactive)
DLD-1
  GI50: 61.8 µM (inactive)
HOP-18
  GI50: > 100 µM (inactive)
RXF 631
  GI50: > 100 µM (inactive)

## N#CCc1nc2c(s1)C(=O)c1ccccc1C2=O
SNB-78
  GI50: 20 µM (inactive)
KM-20L2
  GI50: 38.4 µM (inactive)
DMS-273
  GI50: 15.8 µM (inactive)
M19-MEL
  GI50: 2.84 µM (inactive)
HOP-18
  GI50: 13.8 µM (inactive)
DMS-114
  GI50: 6.24 µM (inactive)
RXF 631
  GI50: 18.2 µM (inactive)

## CC(C)(C)C(=O)C(c1ccc(-c2cscn2)cc1)c1ccc(-c2cscn2)cc1
SNB-78
  GI50: 18.5 µM (inactive)
KM-20L2
  GI50: > 100 µM (inactive)
XF498
  GI50: 27.3 µM (inactive)
DMS-273
  GI50: 58.3 µM (inactive)
M19-MEL
  GI50: 65 µM (inactive)
DLD-1
  GI50: > 79.6 µM (inactive)
HOP-18
  GI50: 67.5 µM (inactive)
RXF 631
  GI50: 22.7 µM (inactive)

## NC(=S)NNc1c([N+](=O)[O-])cnn(-c2ccccc2)c1=O
SNB-78
  GI50: 23.3 µM (inactive)
KM-20L2
  GI50: 15.9 µM (inactive)
XF498
  GI50: 18.7 µM (inactive)
DMS-273
  GI50: 18.3 µM (inactive)
M19-MEL
  GI50: 13.2 µM (inactive)
DLD-1
  GI50: 14.4 µM (inactive)
DMS-114
  GI50: 17.3 µM (inactive)

## COc1cc2c[n+]3ccc4cc(OC)c(OC)cc4c3cc2cc1O
KM-20L2
  GI50: > 100 µM (inactive)
XF498
  GI50: > 100 µM (inactive)
M19-MEL
  GI50: > 100 µM (inactive)
DLD-1
  GI50: > 100 µM (inactive)
HOP-18
  GI50: > 100 µM (inactive)
RXF 631
  GI50: > 100 µM (inactive)

## CCOC(=O)NC(=O)c1cn(CCCOC(=O)NCCCCCCNC(=O)OCCCn2c(=O)c(C(=O)NC(=O)OCC)cn(C)c2=O)c(=O)n(C)c1=O
KM-20L2
  GI50: > 100 µM (inactive)
DMS-273
  GI50: > 100 µM (inactive)
M19-MEL
  GI50: > 100 µM (inactive)
DLD-1
  GI50: > 100 µM (inactive)
HOP-18
  GI50: 52.4 µM (inactive)
DMS-114
  GI50: > 100 µM (inactive)
RXF 631
  GI50: > 100 µM (inactive)

## c1c[nH]c(Cc2nc(Cc3c[nH]cn3)c[nH]2)n1
KM-20L2
  GI50: 0.946 µM (active)
XF498
  GI50: 25.8 µM (inactive)
DMS-273
  GI50: 15.2 µM (inactive)
M19-MEL
  GI50: 15.4 µM (inactive)
DLD-1
  GI50: 4.22 µM (inactive)
HOP-18
  GI50: 8.28 µM (inactive)
DMS-114
  GI50: 16.3 µM (inactive)

## Nc1ncnc2c1ncn2C1(CO)OC(CO)C(O)C1O (stereo not given)
SNB-78
  GI50: > 100 µM (inactive)
KM-20L2
  GI50: > 100 µM (inactive)
XF498
  GI50: > 100 µM (inactive)
DMS-273
  GI50: > 100 µM (inactive)
DLD-1
  GI50: > 100 µM (inactive)
HOP-18
  GI50: > 100 µM (inactive)
DMS-114
  GI50: > 100 µM (inactive)
RXF 631
  GI50: > 100 µM (inactive)

## CC1(C)COC(C2(C)C(=O)C=C(c3ccccc3)c3ccccc32)=N1 (stereo not given)
KM-20L2
  GI50: 40.5 µM (inactive)
M19-MEL
  GI50: 42.8 µM (inactive)
DLD-1
  GI50: 66.4 µM (inactive)
HOP-18
  GI50: > 100 µM (inactive)
DMS-114
  GI50: 38.7 µM (inactive)
RXF 631
  GI50: 33 µM (inactive)

## CC(C)[Si](OCC1CC(C[C@H]2CC(C[C@H]3C[C@@H](CO[Si](C(C)C)(C(C)C)C(C)C)OC(C)(C)O3)OC(C)(C)O2)OC(C)(C)O1)(C(C)C)C(C)C (stereo not given in full)
SNB-78
  GI50: > 100 µM (inactive)
KM-20L2
  GI50: > 100 µM (inactive)
DMS-273
  GI50: > 100 µM (inactive)
M19-MEL
  GI50: > 100 µM (inactive)
DLD-1
  GI50: > 100 µM (inactive)
HOP-18
  GI50: > 100 µM (inactive)
DMS-114
  GI50: > 100 µM (inactive)

## CC(C)(C)C1CCP(=O)(c2ccccc2)CC1 (stereo not given)
SNB-78
  GI50: > 100 µM (inactive)
KM-20L2
  GI50: > 100 µM (inactive)
XF498
  GI50: 2.1 µM (inactive)
DMS-273
  GI50: > 100 µM (inactive)
M19-MEL
  GI50: > 100 µM (inactive)
DLD-1
  GI50: > 100 µM (inactive)
HOP-18
  GI50: > 100 µM (inactive)
DMS-114
  GI50: > 100 µM (inactive)

## Clc1cc2nc[nH]c2cc1Cl
SNB-78
  GI50: > 100 µM (inactive)
XF498
  GI50: 20.1 µM (inactive)
DMS-273
  GI50: > 100 µM (inactive)
M19-MEL
  GI50: > 100 µM (inactive)
DLD-1
  GI50: > 100 µM (inactive)
HOP-18
  GI50: > 100 µM (inactive)
DMS-114
  GI50: > 100 µM (inactive)
